From patent publication US20210308211A1, “METHOD OF TREATING VIRAL INFECTIONS” (priority 2020, published 2021)
“And” between values parts separate entries of the source, which are not always exact repeats. Equal values may be shown once. Non-standard residues stand in square brackets, D forms with d. Residues, ends and D or L forms follow the SMILES beside them. pS = N[C@@H](COP(=O)(O)O)C(=O)O

Key:
Assay type in all cases: in vivo, mouse
C57BL/6 mice [1] = assay: K/B×N serum transfer arthritis, preventive protocol
Experimental: (§1) The TCR transgenic mice expressing the KRN and the MHC class II A^g7 molecule (K/B×N mice) have developed a severe inflammatory arthritis. The administration of serum of these mice to healthy recipient mice causes inflammatory arthritis over a period of about 15 days with a peak ignition around day 7 post-injection.
(§2) Two mouse serum administrations from K/B×N were performed (day 0 and day 2). The injection of serum (100 μl/mouse) is performed by intra-peritoneal (ip) injection in mice C57BL/6 (or B6) for 8 weeks (n=10); untreated mouse (n=10).
(§3) The P140 peptide (100 μg/100 μl; iv retro-orbital) was administered as follows:
(§4) Curative treatment: Injection at day 1 and day 4, to guide the peak of inflammatory disease. Preventive treatment: Injection at day −7 and day −2. Bleeding S0 (at day 0) is followed by bloodletting conducted every six days to dispose of serum. The study ends when inflammation has returned to its basal level, to around day 20 (see FIG. 19).
(§5) During the peak of inflammation, every day the animals are evaluated, and swelling score of articulation is established. It is ranged from 0 to 4 and based on a joint observation of the animal. In practice, this score is given for each leg (4 values) and these values are added together to get a general score that ranges from 0 to 16 (FIG. 20).

Balb/c mice = assay: 31-day HDM-induced asthma model, airway response to methacholine (Flexivent); conditions: for Crs / Ers / Rrs: per mouse
Experimental: The aim of this study was to evaluate the effect of the P140 phosphopeptide administered systemically (intravenously) in a 31-day model of HDM-induced asthma in mice. The P140 phosphopeptide was solubilized in sterile water (Braun) and 10x concentrate sterile saline was added to adjust osmolarity to 300 mosm. Osmolarity was controlled with a micro osmometer (Löser, type 15) and validated (303 mosm). The P140 phosphopeptide was used in vivo at the dose of 4 mg/kg by intravenous (i.v.) routes. Control animals received equivalent volumes (2 ml/kg) of saline (Table 8).
Nine-week-old male Balb/c mice were sensitized by intranasal (i.n.) administration of HDM extract (Stallergenes): 1 μg in 25 μl saline on days 0, 1, 2, 3, 4, and 10 μg on days 14 and 21. Mice were challenged by i.n. administration of HDM (1 μg) and/or saline on days 28, 29 and 30. Mice were treated by i.v. injection (2 ml/kg) of P140 or solvent on day 25 (see FIG. 12).
Airway response to Methacholine (Flexivent®). On day 31, airway responses to PBS then methacholine were assessed using a forced oscillation technique (Flexivent®, SCIREQ, Montreal, Canada) as described (Daubeuf et al, Bioprotocol, 645, 2013). Mice were anesthetized with an intraperitoneal injection of xylasine (Rompun®; 1 mg/kg), followed fifteen minutes later by an intraperitoneal injection of pentobarbital sodium (3.64 mg/Kg). The trachea was exposed and an 18-gauge metal needle was inserted into the trachea. Airways were connected to a computer-controlled small animal ventilator, and quasi-sinusoidally ventilated with a tidal volume of 10 ml/Kg at a frequency of 150 breaths/min and a positive end-expiratory pressure of 2 cm H2O to achieve a mean respiratory volume close to that of spontaneous breathing. After baseline measurement, each mouse was challenged for 10 sec with an aerosol of PBS generated with an in-line nebulizer and administered directly through the ventilator. Then, aerosolized methacholine (MCh) at 50 mg/ml was administered for 10 sec. The effect of methacholine was calculated as the peak response, i.e. the mean of the three maximal values integrated for calculation of airway resistance (R, cm H20·s·mL^−1), elastance (E, cm H20·mL^−1) and compliance (C, mL·cm H20^−1).
All mice were sensitized to HDM on days 0, 1, 2, 3, 4, 14, 21, and challenged either with saline ([…]) or HDM (challenge with allergen). Results are presented as means±SEM. Differences between groups were tested for statistical significance using Student's t test for inflammatory cells and a two-way ANOVA followed by Bonferroni post-test for airway responses.

C57BL/6 mice [2] = assay: K/B×N serum transfer arthritis, curative protocol
Experimental: as §1, §2, §3, §4, §5

MRL/lpr mice = assay: Gougerot-Sjögren syndrome model, salivary glands of MRL/lpr mice
Experimental: In this study MRL/lpr female 11-12 week old mice were used with 10 mice per group for statistical analysis. Each mouse received a single injection by retro-orbital, 100 μg of peptide P140 of 100 μl in […]. After 5 days, the mouse blood was collected in heparinized tube and salivary glands (GSS) were removed and placed in Eppendorf tubes containing PBS pH 7.4.
The number of foci site (FS) is determined for each mouse. A focus is defined as an aggregate of 50 or more cells.
The level of inflammation SG is determined semiquantitatively by a scoring system (0-3 scale): Grade 0: no inflammatory cells; Grade 1: few perivascular inflammatory and periductal Infiltrates (<100 cells); Grade 2: moderate number of perivascular inflammatory and periductal Infiltrates (100-500 cells); Grade 3: extensive inflammation with inflammatory foci broad (>500 cells).
Cells of total salivary glands stained with fluorescently were labeled antibodies for 40 min at 4° C., Were Collected data by FACSCalibur.
The weight of salivary glands Was Measured after-excision. DNase I (1 mg/ml) and collagenase D (50 μg/ml) were used to digest the salivary glands. Total cell counts were evaluated after the digestion.
The MRL/lpr mice (10 mice per arm) were injected with peptide P140 (100 μl/mouse iv). Five days after injection the mice were sacrificed and SGs collected as indicated above. The tissue was cut by the cryostat sections of 5 μm. The sections were labeled with hematoxylin/eosin staining is the method most frequently used in tissue histology. The level of inflammation and the number of FS were determined (FIGS. 17 and 18). Representative pictures are from sample control group 4 and group Treated sample (Bar 500 μm).

[3] = chronic asthma, methacholine 50 mg/ml, P140 i.v. 4 mg/kg day 25, p<0.05
[4] = HDM + P140 (HDM-challenged), first unlabelled sub-column (presumably PBS/baseline)
[5] = HDM + P140 (HDM-challenged), second unlabelled sub-column (presumably MCh 50 mg/mL)
[6] = P140, saline-challenged (chronic asthma), first unlabelled sub-column (presumably PBS/baseline)
[7] = P140, saline-challenged (chronic asthma), second unlabelled sub-column (presumably MCh 50 mg/mL)
[8] = 5 days after one single iv injection
[9] = 5 days after one single iv injection, flow cytometry

`CC[C@H](C)[C@H](NC(=O)[C@H](Cc1ccccc1)NC(=O)[C@H](C)NC(=O)[C@H](Cc1ccc(O)cc1)NC(=O)CNC(=O)[C@H](CCCNC(=N)N)NC(=O)[C@@H]1CCCN1C(=O)[C@H](CCCCN)NC(=O)CNC(=O)[C@H](COP(=O)(O)O)NC(=O)[C@H](CCCNC(=N)N)NC(=O)[C@H](CCCCN)NC(=O)[C@H](CO)NC(=O)[C@H](Cc1ccc(O)cc1)NC(=O)[C@@H](NC(=O)[C@H](CCSC)NC(=O)[C@H](Cc1c[nH]cn1)NC(=O)[C@@H](NC(=O)[C@@H](N)CCCNC(=N)N)[C@@H](C)CC)C(C)C)C(=O)N[C@@H](CCC(=O)O)C(=O)N[C@@H](Cc1ccc(O)cc1)C(=O)O` [Compound P140] (H-RIHMVYSKR[pS]GKPRGYAFIEY-OH; N-terminus and C-terminus assumed) was tested, and the “Clinical signs (swelling joints, weight loss, inflammation score) (in words)” value (C57BL/6 mice [1]; K/B×N model) was “tend to be attenuated”, the Weight loss (C57BL/6 mice [1]; preventive protocol (injection day −7 and day −2), day 1 to day 7, controls 10%) was 5% and the “Increase in size of joints, right back legs” value (C57BL/6 mice [1]; preventive protocol, day 0 to day 7, control mice about 22%) was “around 12%”. The “Increase in size of the joint, left hind paws” value (C57BL/6 mice [1]; preventive protocol, day 0 to day 7, controls about 30%) was “about 15%”, the “General inflammation score, maximum” value (C57BL/6 mice [1]; preventive protocol, sum of four legs, controls around 7, p=0.0156) was no more than 5 and the “Increase in size of articulation, left front leg” value (C57BL/6 mice [1]; preventive protocol, controls 45%, P=0.0397) was 20%. The “Swelling in the joints of right front leg” value (C57BL/6 mice [1]; preventive protocol, controls nearly 45%, p=0.0069) was “+20%”, the “Airway resistance, elastance or compliance (in words)” value (Balb/c mice; allergen (HDM)-challenged mice, compared to the solvent group) was “no effect” and the “Airway resistance, change vs solvent group” value (Balb/c mice; chronic asthma, methacholine 50 mg/ml, P140 i.v. 4 mg/kg day 25, non-significant (n=5)) was −42%. The “Airway compliance, change vs solvent group” value (Balb/c mice; [3]) was “+115%”, the “Elastance, change vs solvent group” value (Balb/c mice; [3]) was −65% and the Crs (Balb/c mice; [4]) was 0.0554 mL/cmH2O and 0.0514 mL/cmH2O and 0.0528 mL/cmH2O and 0.0566 mL/cmH2O and 0.0492 mL/cmH2O and 0.0458 mL/cmH2O and 0.0552 mL/cmH2O and 0.0589 mL/cmH2O. For the same compound, the Ers (Balb/c mice; [4]) was 18.0582 cmH2O/mL and 19.4433 cmH2O/mL and 18.9515 cmH2O/mL and 17.6781 cmH2O/mL and 20.3326 cmH2O/mL and 21.8367 cmH2O/mL and 18.1106 cmH2O/mL and 16.9723 cmH2O/mL, the Rrs (Balb/c mice; [4]) was 0.6405 cmH2O.s/mL and 0.6092 cmH2O.s/mL and 0.7972 cmH2O.s/mL and 0.5185 cmH2O.s/mL and 0.6804 cmH2O.s/mL and 0.6365 cmH2O.s/mL and 0.4744 cmH2O.s/mL and 0.5456 cmH2O.s/mL and the Crs (Balb/c mice; [5]) was 0.0146 mL/cmH2O and 0.0075 mL/cmH2O and 0.0062 mL/cmH2O and 0.0065 mL/cmH2O and 0.0101 mL/cmH2O and 0.0060 mL/cmH2O and 0.0138 mL/cmH2O and 0.0081 mL/cmH2O. For the same compound, the Ers (Balb/c mice; [5]) was 79.8018 cmH2O/mL and 148.4985 cmH2O/mL and 188.1151 cmH2O/mL and 219.9720 cmH2O/mL and 125.7688 cmH2O/mL and 173.4582 cmH2O/mL and 72.6033 cmH2O/mL and 131.8035 cmH2O/mL, the Rrs (Balb/c mice; [5]) was 5.6421 cmH2O.s/mL and 10.3886 cmH2O.s/mL and 11.9654 cmH2O.s/mL and 10.5419 cmH2O.s/mL and 8.8810 cmH2O.s/mL and 13.0087 cmH2O.s/mL and 7.0705 cmH2O.s/mL and 9.7688 cmH2O.s/mL and the Rrs (Balb/c mice; P140, saline-challenged (chronic asthma)) was 0.5590 cmH2O.s/mL and 0.8945 cmH2O.s/mL and 0.5926 cmH2O.s/mL and 0.8074 cmH2O.s/mL and 0.4418 cmH2O.s/mL. For the same compound, the Crs (Balb/c mice; [6]) was 0.0545 mL/cmH2O and 0.0498 mL/cmH2O and 0.0569 mL/cmH2O and 0.0541 mL/cmH2O and 0.0650 mL/cmH2O, the Ers (Balb/c mice; [6]) was 18.3671 cmH2O/mL and 20.0811 cmH2O/mL and 17.5777 cmH2O/mL and 18.4893 cmH2O/mL and 15.3975 cmH2O/mL and the Crs (Balb/c mice; [7]) was 0.0304 mL/cmH2O and 0.0132 mL/cmH2O and 0.0380 mL/cmH2O and 0.0238 mL/cmH2O and 0.0370 mL/cmH2O. For the same compound, the Ers (Balb/c mice; [7]) was 33.3720 cmH2O/mL and 84.9688 cmH2O/mL and 26.3200 cmH2O/mL and 42.4174 cmH2O/mL and 28.6047 cmH2O/mL, the Rrs (Balb/c mice; [7]) was 4.1067 cmH2O.s/mL and 9.4002 cmH2O.s/mL and 2.2229 cmH2O.s/mL and 4.0926 cmH2O.s/mL and 2.1844 cmH2O.s/mL and the “Baseline airway resistance, elastance and compliance after PBS inhalation (in words)” value (Balb/c mice; saline-challenged mice, i.v. 4 mg/kg day 25, compared to solvent-treated mice) was “no effect”. The Weight loss (C57BL/6 mice [2]; curative protocol (injection day 1 and day 4), from day 2, NaCl 10%) was 15%, the Weight gain (C57BL/6 mice [2]; curative protocol, between day 5 and the end of the study, controls 5%) was 20% and the “Inflammation score, maximum” value (C57BL/6 mice [2]; curative protocol, per rear leg, same for controls) was roughly 1.5. The “Lymphocytic infiltration in the SGs” value (MRL/lpr mice; 5 days after one single administration, hematoxylin/eosin) was “significantly reduced”, the “Total number of cells present in the SGs” value (MRL/lpr mice; [8]) was “no apparent effect” and the “Weight of SGs (salivary glands)” value (MRL/lpr mice; [8]) was “no statistically significant effect”. For the same compound, the “CD4+T cells in SGs” value (MRL/lpr mice; [9]) was “decreased” and the “Total number of B cells in SGs” value (MRL/lpr mice; [9]) was “no statistically significant effect”.
